Source: patent publication US4855497A, “Novel diamine derivatives” (Chugai Seiyaku Kabushiki Kaisha, priority 1985, dated 1989)

Columns and labels:
Acetylcholine = assay: Activity against acetylcholine (I): inhibition of acetylcholine-induced contraction of isolated ilea; set-up: species or system SD/Slc male rats; details: 10^-4 M; 10^-6 M acetylcholine; isolated rat ilea
Description: Activity Against Acetylcholine (I)
SD/Slc male rats (10-mo. old, four animals per group) were clubbed dead and their ilea were immediately extracted. The ilea were suspended under a load of 1 g in a Krebs-Henseleit solution oxygenated with a mixture of 95% O2 +5% CO2 at 27° C., and the ileal reaction was measured isotonically.
The anti-cholinergic activity of each of the compounds tested was determined in terms of percent inhibition against the contractive reaction of 10^-6 M of acetylcholine (causing 60-70% of the maximum contractive reaction of acetylcholine).

Blood Sugar Level = assay: Effect on blood sugar level; format: in vivo, SD/Slc male rats; details: starved overnight
Description: Effect on Blood Sugar Level
After starving SD/Slc male rats (body weight, 250 g; 6 animals per group) overnight, 20-μl blood samples were drawn from the tail vein of each rat while it was not anesthetized. Records were taken of the sugar level in each blood sample. A selected compound of the present invention was suspended in 3% gum arabic and the suspension was administered perorally to each rat in an amount of 50 or 200 mg/kg. At 2, 4 and 6 hours of the administration, blood samples were taken and their blood sugar levels were measured. Measurements of blood sugar levels were conducted with a New Blood Sugar Test (Boehringer, Mannheim).
To the control group, a 3% gum arabic solution was administered, and diisopyramide was administered as a comparative drug.

[1] = system: Aconitine-Induced Arrythmia; assay: Activity against aconitine-induced arrythmia in rats; format: in vivo, Sprague-Dowley male rats; details: aconitine 1 μg/kg/min; for Time required for ventricular extrasystole to occur: untreated 14.3 min; for Time required for ventricular fibrillation to occur: untreated 35.3 min
Description: Activity Against Aconitine-Induced Arrythmia in Rats
Using Sprague-Dowley male rats (9-10 wk. old, two animals per group) weighing about 350 g on average, the following experiment was conducted substantially in compliance with the method of Vargftig et al. (Europ. J. Pharmacol., 6, 49, 1969).
The animals were anesthetized by intraperitoneal administration of 1 g/kg of urethane. A polyethylene cannula was inserted into both the femoral artery and vein of each animal; the drug was administered through the femoral vein while the blood pressure was measured at the femoral artery.
While the aconitine solution was continuously infused into the vein at a rate of 1 μg/kg/min, a selected compound was administered intravenously at 5-minute intervals. In order to prevent the aconitine-induced dyspnea from interfering with the experimental results, 0.2 mg/kg of d-tubocurarine was administered intravenously to each animal, which then was subjected to artificial respiration through a cannula inserted into the trachea (80 breathings/min, with 4 ml of air supplied by a single ventillation).
Identification of arrythmia was made by the ECG in the second induction period; the appearance of a QRS complex with sharply downward deflections was used as an indication of ventricular arrythmia and observation was continued until ventricular fibrillation appeared. The results are shown in Table 3 in terms of the times required for ventricular extrasystole and ventricular fibrillation to occur.

[2] = system: Chloroform-Induced Arrythmia; assay: Activity against chloroform-induced arrythmia in rats (prevention of ventricular fibrillation); format: in vivo, Sprague-Dowley male rats; details: 30 min prior to chloroform; for responders at 1 mg/kg: Rattus norvegicus, po, 0.5 h, not starved rats, 1 mg/kg P.O., read-out: Percent prevention (ventricular fibrillation), not starved
Description: Activity Aganist Chloroform-Induced Arrythmia in Rats
The following procedures were substantially in accordance with the method of Erker and Baker (Arch. Int. Pharmacodyn., 243, 97-102, 1980). Aminophylline (20 mg/kg) was injected intramuscularly into two groups of Sprague-Dowley male rats (3-4 wk. old, 7 animals per group) weighing about 100 g on average, one group having been starved for 24 hours and the other group not starved. Thirty minutes after the injection, the animals were put into a 4,000-ml glass beaker with a lid that contained gauze impregnated with […] of chloroform. Fifty minutes later, the animals were recovered from the beaker and their chests were incised to check their hearts for the presence of ventricular fibrillation. The features of their cardiac rhythm were examined by the electrocardiogram. When no distinct fibrillation was observed, the heart was touched with tweezers. The heart was identified as fibrillar when rapid irregular twitchings occured on the surface of ventricles and continued for at least 5 seconds after chest incision or mechanical stimulation.
Selected compounds suspended in 3% gum arabic were administered in various doses to the rats either intraperitoneally (i.P.) or perorally (P.O.) 30 minutes prior to treatment with chloroform. The percent prevention of ventricular fibrillation was determined for each rat. Only a 3% gum arabic solution was administered to the control group.

[3] = system: Ouabain-Induced Arrythmia; assay: Activity against ouabain-induced arrythmia in guinea pigs; format: in vivo, Hartly male guinea pigs; details: ouabain 5 μg/kg/min; for Time required for ventricular extrasystole to occur: untreated 28.5 min; for Time required for ventricular fibrillation to occur: untreated 35.1 min; for Time required for cardiac arrest to occur: untreated 41.2 min
Description: Activity Against Ouabain-Induced Arrythmia in Guinea Pigs
Hartly male guinea pigs (5-6 wk. old, two animals per group) weighing about 350 g on average were anesthetized by intraperitoneal administration of 1.2 g/kg of urethane. A polyethylene cannula was inserted into both the cervical vein and the carotid artery; the drug was administered through the cervical vein while the blood pressure was measured at the carotid artery. A selected test compound was administered 5 minutes before the sustained intravenous infusion of the ouabain solution (5 μg/kg/min) as described in J. Pharmacol. Exp. Ther., 136, 227, 1962). Identification of arrythmia was made by the ECG in the second induction period; the appearance of a QRS complex with sharply downward deflictions was used as an indication of ventricular arrythmia and observation was continued until ventricular fibrillation and cardiac arrest appeared. The results are shown in Table 4 in terms of the times required for ventricular extrasystole, ventricular fibrillation and cardiac arrest to occur.

[4] = system: sleeping induced by hexobarbital; assay: Effect on the time of sleeping induced by hexobarbital; format: in vivo, ddY/Slc male rats; details: 5 mg/kg perorally; ** p < 0.05 vs untreated (53.9 ± 2.7)
Description: Effect on the Time of Sleeping Induced by Hexobarbital
A selected compound of the present invention was administered perorally to ddY/Slc male rats (5-6 wk. old, 10 animals per group) in an amount of 50 or 100 mg/kg. One hour later, […] of hexobarbital was administered intraperitoneally to each animal, thereby causing the loss of orthogonal reflex. The time required for the recovery of orthogonal reflex was measured for each animal.
As comparative drugs, 50 or 100 mg/kg of disopyramide and 5 mg/kg of diazepam were administered perorally.

[5] = peroral, clinical; cited from earlier work

SMILES	Percent inhibition (contractive reaction of acetylcholine) (Acetylcholine) [%]	Time required for ventricular extrasystole to occur ([1]; 5 mg/kg intravenously) [min]	Time required for ventricular fibrillation to occur ([1]; 5 mg/kg intravenously) [min]	responders at 1 mg/kg [2] [%]	Time required for ventricular extrasystole to occur ([3]; 10 mg/kg via cervical vein) [min]	Time required for ventricular fibrillation to occur ([3]; 10 mg/kg via cervical vein) [min]	Time required for cardiac arrest to occur ([3]; 10 mg/kg via cervical vein) [min]	also measured
Cc1cccc(C)c1NC(=O)CCNCCCN(C)C [Compound No. 2, 3-(dimethylaminopropylamino)-2',6'-dimethylpropionanilide]	7	25.5	36.5	71.4	38.1	43.4	48.7	Blood sugar level, 0 hr (mean ± S.E.) (Blood Sugar Level; 50 mg/kg perorally): 77.6 ± 5.5 mg/dL; Blood sugar level, 2 hr (mean ± S.E.) (Blood Sugar Level; 50 mg/kg perorally): 61.3 ± 2.2 mg/dL; Blood sugar level, 4 hr (mean ± S.E.) (Blood Sugar Level; 50 mg/kg perorally): 63.7 ± 4.5 mg/dL; Blood sugar level, 6 hr (mean ± S.E.) (Blood Sugar Level; 50 mg/kg perorally): 64.4 ± 4.4 mg/dL; Blood sugar level, 0 hr (mean ± S.E.) (Blood Sugar Level; 200 mg/kg perorally): 76.1 ± 2.4 mg/dL; Blood sugar level, 2 hr (mean ± S.E.) (Blood Sugar Level; 200 mg/kg perorally): 52.9 ± 3.2 mg/dL; Blood sugar level, 4 hr (mean ± S.E.) (Blood Sugar Level; 200 mg/kg perorally): 58.3 ± 2.6 mg/dL; Blood sugar level, 6 hr (mean ± S.E.) (Blood Sugar Level; 200 mg/kg perorally): 56.8 ± 1.7 mg/dL; Time required for ventricular extrasystole to occur ([3]; 5 mg/kg via cervical vein): 31.0 min; Time required for ventricular fibrillation to occur ([3]; 5 mg/kg via cervical vein): 38.5 min; Time required for cardiac arrest to occur ([3]; 5 mg/kg via cervical vein): 39.5 min
CCN(CC)CCCNCCC(=O)Nc1c(C)cccc1C [Compound No. 3, 3-(diethylaminopropylamino)-2',6'-dimethylpropionanilide]	28	27.4	> 120.0	100	34.4	42.2	48.4	–
Cc1cccc(C)c1NC(=O)CCNCCNC(C)C [Compound No. 4, 3-(isopropylaminoethylamino)-2', 6'-dimethylpropionanilide]	0	–	–	100	42.5	59.5	66.5	Blood sugar level, 0 hr (mean ± S.E.) (Blood Sugar Level; 50 mg/kg perorally): 81.2 ± 2.4 mg/dL; Blood sugar level, 2 hr (mean ± S.E.) (Blood Sugar Level; 50 mg/kg perorally): 60.3 ± 3.4 mg/dL; Blood sugar level, 4 hr (mean ± S.E.) (Blood Sugar Level; 50 mg/kg perorally): 57.5 ± 1.6 mg/dL; Blood sugar level, 6 hr (mean ± S.E.) (Blood Sugar Level; 50 mg/kg perorally): 61.5 ± 0.6 mg/dL; Blood sugar level, 0 hr (mean ± S.E.) (Blood Sugar Level; 200 mg/kg perorally): 69.1 ± 2.9 mg/dL; Blood sugar level, 2 hr (mean ± S.E.) (Blood Sugar Level; 200 mg/kg perorally): 57.4 ± 3.0 mg/dL; Blood sugar level, 4 hr (mean ± S.E.) (Blood Sugar Level; 200 mg/kg perorally): 58.5 ± 2.1 mg/dL; Blood sugar level, 6 hr (mean ± S.E.) (Blood Sugar Level; 200 mg/kg perorally): 59.0 ± 1.8 mg/dL; Time required for ventricular extrasystole to occur ([1]; 10 mg/kg intravenously): 34.4 min; Time required for ventricular fibrillation to occur ([1]; 10 mg/kg intravenously): > 120.0 min
CN1C(=O)CN=C(c2ccccc2)c2cc(Cl)ccc21 [Diazepam]	–	–	–	–	–	–	–	Time of sleeping (mean ± S.E.) [4]: 136.4 ± 5.8 min
CCN(CC)CC(=O)Nc1c(C)cccc1C [Lidocaine, reference compound]	–	–	–	–	–	–	–	Percent prevention (ventricular fibrillation), starved ([2]; starved rats, 20 mg/kg i.P.): 77.1%; drug level in blood [5]: too low to attain the desired effectiveness
Cc1cccc(C)c1NC(=O)CCNCCCN(C(C)C)C(C)C [compound 11]	0	26.2	73.8	85.7	35.3	45.3	52.4	Blood sugar level, 0 hr (mean ± S.E.) (Blood Sugar Level; 50 mg/kg perorally): 71.3 ± 2.9 mg/dL; Blood sugar level, 2 hr (mean ± S.E.) (Blood Sugar Level; 50 mg/kg perorally): 61.8 ± 3.1 mg/dL; Blood sugar level, 4 hr (mean ± S.E.) (Blood Sugar Level; 50 mg/kg perorally): 64.0 ± 2.2 mg/dL; Blood sugar level, 6 hr (mean ± S.E.) (Blood Sugar Level; 50 mg/kg perorally): 63.8 ± 1.5 mg/dL; Blood sugar level, 0 hr (mean ± S.E.) (Blood Sugar Level; 200 mg/kg perorally): 62.3 ± 2.7 mg/dL; Blood sugar level, 2 hr (mean ± S.E.) (Blood Sugar Level; 200 mg/kg perorally): 52.0 ± 3.5 mg/dL; Blood sugar level, 4 hr (mean ± S.E.) (Blood Sugar Level; 200 mg/kg perorally): 53.8 ± 3.8 mg/dL; Blood sugar level, 6 hr (mean ± S.E.) (Blood Sugar Level; 200 mg/kg perorally): 63.6 ± 1.5 mg/dL; Time required for ventricular extrasystole to occur ([1]; 10 mg/kg intravenously): 44.2 min; Time required for ventricular fibrillation to occur ([1]; 10 mg/kg intravenously): > 120.0 min
Cc1cccc(C)c1NC(=O)CCNCCCN(CC(C)C)CC(C)C [compound 12]	–	26.2	30.2	85.7	45.4	48.2	56.6	–
Cc1cccc(C)c1NC(=O)CCNCCCNC1CCCCCCC1 [compound 14]	–	–	–	85.7	–	–	–	–
Cc1cccc(C)c1NC(=O)CCCNCCCN(CC(C)C)CC(C)C [compound 18]	0	–	–	–	–	–	–	–
CCc1cccc(CC)c1NC(=O)CCNCCCN(CC(C)C)CC(C)C [compound 31]	–	26.1	> 90.0	100	–	–	–	Time required for ventricular extrasystole to occur ([3]; 5 mg/kg via cervical vein): 34.1 min; Time required for ventricular fibrillation to occur ([3]; 5 mg/kg via cervical vein): 51.0 min; Time required for cardiac arrest to occur ([3]; 5 mg/kg via cervical vein): 57.8 min
CCc1cccc(CC)c1NC(=O)CCNCCCCCN(CC(C)C)CC(C)C [compound 35]	9	24.5	84.5	100	–	–	–	Time required for ventricular extrasystole to occur ([3]; 5 mg/kg via cervical vein): 45.4 min; Time required for ventricular fibrillation to occur ([3]; 5 mg/kg via cervical vein): 48.4 min; Time required for cardiac arrest to occur ([3]; 5 mg/kg via cervical vein): 56.2 min
